Test results taken from patent US8664257B2, “Oxygen-substituted 3-heteroaroylamino-propionic acid derivatives and their use as pharmaceuticals” (Sanofi, priority 2010, dated 2014).
Read-outs that look alike come from different tables or passages of the source. Blank lines part the entries; values can stand above or below the compound they belong to.

Target: T1, Recombinant human cathepsin A (Homo sapiens, UniProt P10619)
T1 construct: Recombinant human cathepsin A (residues 29-480, with a C-terminal 10-His tag); 10-His (C); purchased R&D Systems 1049-SE
T1 sequence (P10619 29-312 limits assumed): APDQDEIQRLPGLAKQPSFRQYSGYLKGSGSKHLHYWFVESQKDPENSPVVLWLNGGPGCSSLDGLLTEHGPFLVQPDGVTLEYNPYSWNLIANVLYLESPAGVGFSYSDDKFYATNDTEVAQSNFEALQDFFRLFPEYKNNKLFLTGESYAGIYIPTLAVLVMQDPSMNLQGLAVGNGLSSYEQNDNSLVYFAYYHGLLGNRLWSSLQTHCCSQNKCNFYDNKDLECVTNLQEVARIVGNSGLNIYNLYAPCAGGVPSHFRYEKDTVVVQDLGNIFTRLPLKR
T1 sequence (P10619 327-480 limits assumed): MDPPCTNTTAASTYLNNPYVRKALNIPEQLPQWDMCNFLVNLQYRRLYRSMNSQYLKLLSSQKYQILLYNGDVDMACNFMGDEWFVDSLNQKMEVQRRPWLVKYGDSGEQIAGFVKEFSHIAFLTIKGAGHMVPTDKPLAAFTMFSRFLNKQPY
Experiment: Cathepsin A inhibitory activity
Assay type: biochemical
In short: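 Human cathepsin A (res. 29-480, C-His10) pre-activated with cathepsin L (MES pH 6.0, DTT, 15 min, 37 °C; quenched with 10 μM E-64). Enzyme (833 ng/ml) preincubated 15 min RT with compound in MES pH 5.5/DTT, then 2 μM Bodipy FL-bradykinin for 15 min RT. Capillary electrophoresis product/substrate peak areas; IC50 from % inhibition.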

[1] = read-out: Activity (2): Cathepsin A inhibitory activity, IC50 class
[2] = pharmacological test "Cathepsin A inhibitory activity", IC50 given as class A/B/C, read-out: Activity (2): Cathepsin A inhibitory activity, IC50 class
[3] = read-out: Activity (2): Cathepsin A inhibitory activity (IC50 class)
[4] = recombinant human cathepsin A 833 ng/ml, Bodipy FL-labeled bradykinin 2 μM, pH 5.5, read-out: CATH-A IC50
[5] = recombinant human cathepsin A, read-out: Activity (2): Cathepsin A inhibitory activity, IC50 class

Structure (SMILES): Cc1cccc(C(CC(=O)O)NC(=O)c2cc(O)n(-c3cccc(Cl)c3)n2)c1C (stereo not shown) [Example 261]
IC50 [2]: 100 to 1000 nM

Structure (SMILES): Cc1ccccc1[C@H](CC(=O)O)NC(=O)c1cc(OCC(C)(O)c2ccccc2)n(-c2ccccc2F)n1 (stereo partly drawn) [Example 891, (S)-3-{[1-(2-Fluoro-phenyl)-5-(2-hydroxy-2-phenyl-propoxy)-1H-pyrazole-3-carbonyl]-amino}-3-o-tolyl-propionic acid]
IC50 [1]: < 100 nM

Structure (SMILES): Cc1ccccc1[C@H](CC(=O)O)NC(=O)c1cc(O)n(-c2ccncc2)n1 [Example 141]
IC50 [2]: 1000 to 30000 nM

Structure (SMILES): COc1cc(C(=O)N[C@@H](CC(=O)Nc2cc(C)[nH]n2)c2ccccc2C)nn1-c1ccccc1F [Example 923, 1-(2-Fluoro-phenyl)-5-methoxy-1H-pyrazole-3-carboxylic acid [(S)-2-(5-methyl-1H-pyrazol-3-ylcarbamoyl)-1-o-tolyl-ethyl]-amide]
IC50 [5]: 1000 to 30000 nM

Structure (SMILES): Cc1ccccc1[C@H](CC(=O)O)NC(=O)c1cc(O)n(-c2ccc(S(N)(=O)=O)cc2)n1 [Example 602]
IC50 [3]: 1000 to 30000 nM

Structure (SMILES): O=C(O)CC(NC(=O)c1cc(O)n(-c2cccc(Cl)c2)n1)c1cc(F)ccc1C(F)(F)F (stereo not shown) [Example 466, 3-{[1-(3-Chloro-phenyl)-5-hydroxy-1H-pyrazole-3-carbonyl]-amino}-3-(5-fluoro-2-trifluoromethyl-phenyl)-propionic acid]
IC50 [4]: 562 nM | IC50 [5]: 100 to 1000 nM

Structure (SMILES): COc1cccc([C@H](CC(=O)O)NC(=O)c2cc(OC[C@@](C)(O)C(C)C)n(-c3ccccc3F)n2)c1OC [Example 769]
IC50 [3]: < 100 nM

Structure (SMILES): COc1cc(C(=O)NC(CC(=O)O)c2cccc(C)c2C)nn1-c1ccccc1F (stereo not shown) [Example 682, 3-(2,3-Dimethyl-phenyl)-3-{[1-(2-fluoro-phenyl)-5-methoxy-1H-pyrazole-3-carbonyl]-amino}-propionic acid]
IC50 [3]: < 100 nM

Structure (SMILES): O=C(O)CC(NC(=O)c1cc(O)n(-c2ccccc2)n1)c1cccc2c1OCO2 (stereo not shown) [Example 158]
IC50 [2]: 100 to 1000 nM

Structure (SMILES): CCC(O)COc1cc(C(=O)N[C@@H](CC(=O)O)c2ccccc2C)nn1-c1ccccc1F (stereo partly shown) [Example 755]
IC50 [3]: < 100 nM

Structure (SMILES): O=C(O)CC(NC(=O)c1cc(O)n(-c2ccc(Cl)cc2)n1)c1cccc(Cl)c1Cl (stereo not shown) [Example 281]
IC50 [1]: 100 to 1000 nM

Structure (SMILES): Cc1ccccc1[C@H](CC(=O)O)NC(=O)c1cc(OC(=O)N(C)C)n(-c2ccccc2F)n1 [Example 614]
IC50 [3]: < 100 nM

Structure (SMILES): CC(C)(C)C(=O)COc1cc(C(=O)N[C@@H](CC(=O)O)c2cccc(Cl)c2)nn1-c1ccccc1F [Example 796, (S)-3-(3-Chloro-phenyl)-3-{[5-(3,3-dimethyl-2-oxo-butoxy)-1-(2-fluoro-phenyl)-1H-pyrazole-3-carbonyl]-amino}-propionic acid]
IC50 [1]: < 100 nM

Structure (SMILES): Cc1cccc([C@H](CC(=O)O)NC(=O)c2cc(OC[C@@H](O)C(C)(C)C)n(-c3ccccc3F)n2)c1 [Example 792, (S)-3-{[1-(2-Fluoro-phenyl)-5-((S)-2-hydroxy-3,3-dimethyl-butoxy)-1H-pyrazole-3-carbonyl]-amino}-3-m-tolyl-propionic acid]
IC50 [3]: < 100 nM

Structure (SMILES): COc1ccc(C(CC(=O)O)NC(=O)c2cc(OCC3CC3)n(-c3ccccc3F)n2)c(C)c1 (stereo not shown) [Example 692]
IC50 [3]: < 100 nM

Structure (SMILES): Cc1ccccc1[C@H](CC(=O)O)NC(=O)c1cc(OCC2CCCCC2)n(-c2ccccc2F)n1 [Example 638]
IC50 [3]: < 100 nM

Structure (SMILES): CC(C)(C)[C@@H](O)COc1cc(C(=O)N[C@@H](CC(=O)O)c2ccc(Cl)cc2Cl)nn1-c1ccccc1F [Example 753, (S)-3-(2,4-Dichloro-phenyl)-3-{[1-(2-fluoro-phenyl)-5-((R)-2-hydroxy-3,3-dimethyl-butoxy)-1H-pyrazole-3-carbonyl]-amino}-propionic acid]
IC50 [3]: < 100 nM | IC50 [4]: 345 nM

Structure (SMILES): Cc1ccccc1[C@H](CC(=O)O)NC(=O)c1cc(OCC2CC2)n(-c2ccccc2F)n1 [Example 612]
IC50 [3]: < 100 nM

Structure (SMILES): O=C(O)C[C@H](NC(=O)c1cc(O)n(-c2cccc(Cl)c2)n1)c1ccc(Cl)cc1Cl [Example 266]
IC50 [2]: 100 to 1000 nM

Structure (SMILES): CCOc1cc(C(=O)N[C@@H](CC(=O)O)c2ccccc2C)nn1-c1ccccc1Cl [Example 727]
IC50 [3]: < 100 nM

Structure (SMILES): Cc1ccccc1[C@H](CC(=O)O)NC(=O)c1cc(OCCCF)n(-c2ccccc2F)n1 [Example 641]
IC50 [3]: < 100 nM

Structure (SMILES): COc1ccccc1[C@@H](NC(=O)c1cc(O)n(-c2cccc(Cl)c2)n1)[C@@H](O)C(=O)O [Example 416]
IC50 [5]: 1000 to 30000 nM

Structure (SMILES): COc1cccc([C@H](CC(=O)O)NC(=O)c2cc(OCC3CC3)n(-c3ccccc3F)n2)c1 [Example 689]
IC50 [3]: 100 to 1000 nM

Structure (SMILES): COc1ccc(C(CC(=O)O)NC(=O)c2cc(OC)n(-c3ccccc3F)n2)c(C)c1 (stereo not shown) [Example 672, 3-{[1-(2-Fluoro-phenyl)-5-methoxy-1H-pyrazole-3-carbonyl]-amino}-3-(4-methoxy-2-methyl-phenyl)-propionic acid]
IC50 [3]: < 100 nM

Structure (SMILES): COc1ccc(C(CC(=O)O)NC(=O)c2cc(O)n(-c3ccccc3Cl)n2)c(C)c1 (stereo not shown) [Example 203]
IC50 [2]: 100 to 1000 nM

Continued, values first:

IC50 [1]: 100 to 1000 nM
Structure (SMILES): O=C(O)CC(NC(=O)c1cc(O)n(-c2cccc(F)c2)n1)c1cccc(Cl)c1 (stereo not shown) [Example 301]

IC50 [2]: 100 to 1000 nM
Structure (SMILES): O=C(O)C[C@H](NC(=O)c1cc(O)n(-c2ccccc2F)n1)c1cccc(C(F)(F)F)c1 [Example 241]

IC50 [1]: 100 to 1000 nM
Structure (SMILES): Cc1cccc([C@H](CC(=O)O)NC(=O)c2cc(O)n(-c3ccc(F)cc3)n2)c1 [Example 354]

IC50 [1]: 1000 to 30000 nM
Structure (SMILES): Cc1ccc(C(CC(=O)O)NC(=O)c2cc(O)n(-c3cc(C)ccc3C)n2)cc1 (stereo not shown) [Example 50]

IC50 [3]: 1000 to 30000 nM | IC50 [4]: 13800 nM
Structure (SMILES): COc1ccc(-c2ccccc2)cc1C(CC(=O)O)NC(=O)c1cc(O)n(-c2ccccc2)n1 (stereo not shown) [Example 549, 3-[(5-Hydroxy-1-phenyl-1H-pyrazole-3-carbonyl)-amino]-3-(4-methoxy-biphenyl-3-yl)-propionic acid]

IC50 [1]: 100 to 1000 nM
Structure (SMILES): Cc1ccccc1C(CC(=O)O)NC(=O)c1cc(O)n(-c2ccc(F)c(Cl)c2)n1 (stereo not shown) [Example 80]

IC50 [2]: 100 to 1000 nM
Structure (SMILES): N#Cc1ccc([C@H](CC(=O)O)NC(=O)c2cc(O)n(-c3ccc(F)cc3F)n2)cc1 [Example 176]

IC50 [1]: 100 to 1000 nM
Structure (SMILES): O=C(O)C[C@H](NC(=O)c1cc(O)n(-c2ccc(F)cc2)n1)c1ccc(Cl)cc1 [Example 369]

IC50 [1]: 100 to 1000 nM
Structure (SMILES): O=C(O)CC(NC(=O)c1cc(O)n(-c2ccccc2Cl)n1)c1ccc(Oc2ccccc2)cc1 (stereo not shown) [Example 113]

IC50 [3]: < 100 nM
Structure (SMILES): CCOc1cc(C(=O)N[C@@H](CC(=O)O)c2ccc(C)cc2)nn1-c1ccccc1F [Example 716]

IC50 [5]: 100 to 1000 nM
Structure (SMILES): Cc1c(F)cccc1C(CC(=O)O)NC(=O)c1cc(O)n(-c2ccc(F)cc2)n1 (stereo not shown) [Example 523, 3-(3-Fluoro-2-methyl-phenyl)-3-{[1-(4-fluoro-phenyl)-5-hydroxy-1H-pyrazole-3-carbonyl]-amino}-propionic acid]

IC50 [4]: 116 nM | IC50 [5]: 100 to 1000 nM
Structure (SMILES): O=C(O)C[C@H](NC(=O)c1cc(O)n(-c2ccc(F)cc2F)n1)c1ccccc1Cl [Example 502, (S)-3-(2-Chloro-phenyl)-3-{[1-(2,4-difluoro-phenyl)-5-hydroxy-1H-pyrazole-3-carbonyl]-amino}-propionic acid]

IC50 [1]: 1000 to 30000 nM
Structure (SMILES): N#Cc1cccc([C@H](CC(=O)O)NC(=O)c2cc(O)n(-c3ccc(Cl)cc3)n2)c1 [Example 271]

IC50 [4]: 409 nM | IC50 [5]: 100 to 1000 nM
Structure (SMILES): O=C(O)CC(NC(=O)c1cc(O)n(-c2ccc(F)cc2F)n1)c1cccc2c1OC(F)(F)O2 (stereo not shown) [Example 450, 3-(2,2-Difluoro-benzo[1,3]dioxol-4-yl)-3-{[1-(2,4-difluoro-phenyl)-5-hydroxy-1H-pyrazole-3-carbonyl]-amino}-propionic acid]

IC50 [2]: 100 to 1000 nM
Structure (SMILES): O=C(O)C[C@H](NC(=O)c1cc(O)n(-c2ccccc2Cl)n1)c1ccccc1Br [Example 204]

IC50 [5]: 100 to 1000 nM
Structure (SMILES): Cc1ccccc1[C@H](CC(=O)O)NC(=O)c1cc(O)n(-c2ccccc2C(F)(F)F)n1 [Example 537]

IC50 [3]: < 100 nM
Structure (SMILES): COc1cc(C(=O)N[C@@H](CC(=O)O)c2cccc(Cl)c2Cl)nn1-c1ccccc1F [Example 681]

IC50 [3]: 100 to 1000 nM
Structure (SMILES): CCOc1cc(C(=O)NC(CC(=O)O)c2ccc(F)cc2)nn1-c1ccccc1Cl (stereo not shown) [Example 739]

IC50 [2]: 100 to 1000 nM
Structure (SMILES): O=C(O)CC(NC(=O)c1cc(O)n(-c2ccccc2F)n1)c1ccc(-c2cccc(F)c2)cc1 (stereo not shown) [Example 242]

IC50 [1]: 100 to 1000 nM
Structure (SMILES): Cc1cccc([C@H](CC(=O)O)NC(=O)c2cc(O)n(-c3ccccc3)n2)c1 [Example 376]

IC50 [3]: 100 to 1000 nM
Structure (SMILES): O=C(O)CC(NC(=O)c1cc(O)n(-c2ccccc2F)n1)c1ccc(-n2cccn2)cc1 (stereo not shown) [Example 582]

IC50 [1]: 1000 to 30000 nM
Structure (SMILES): O=C(O)C[C@H](NC(=O)c1cc(O)n(-c2ccc(Cl)cc2)n1)c1cccc(C(F)(F)F)c1 [Example 285]

IC50 [5]: 100 to 1000 nM
Structure (SMILES): O=C(O)CC(NC(=O)c1cc(O)n(-c2ccccc2F)n1)c1ccccc1 (stereo not shown) [Example 535]

IC50 [3]: 100 to 1000 nM
Structure (SMILES): Cc1ccccc1[C@H](CC(=O)O)NC(=O)c1cc(OCc2cccc(C(F)(F)F)c2)n(-c2ccccc2F)n1 [Example 624]

IC50 [1]: 100 to 1000 nM
Structure (SMILES): CCc1ccc(C(CC(=O)O)NC(=O)c2cc(O)n(-c3ccc(F)cc3)n2)cc1 (stereo not shown) [Example 363]
